Source: ChEMBL document CHEMBL1201862, “PubChem BioAssay data set” (2004)
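Five compound concentrations were applied to cells in 96-well plates for 48 hours; endpoints were derived by simple linear interpolation of the resulting dose-response curve. The concentration for 50% growth inhibition is given as GI50.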 Active and inactive are the calls of the source. No stated cut-off is given here; in the data, active = GI50 up to about 1.1 µM and inactive = higher.

Legend:
Assay in all cases: DTP human tumour cell line panel, 48 h
[1] = system: MCF7
[2] = system: SF-268
[3] = system: T47D
[4] = system: 786-0
[5] = system: A549
[6] = system: SK-MEL-5
[7] = system: SK-MEL-28
[8] = system: Malme-3M
[9] = system: K562
[10] = system: SW-620
[11] = system: SN12C
[12] = system: OVCAR-8
[13] = system: IGROV-1
[14] = system: EKVX
[15] = system: KM12
[16] = system: U-251
[17] = system: UO-31
[18] = system: NCI-H460
[19] = system: DU-145
[20] = system: Hs-578T

Measured: GI50

Cn1c2ccccc2c(=O)c2ccc(Cl)cc21
inactive: [1] > 10 µM | [2] > 10 µM | [3] > 10 µM | [4] > 10 µM | [5] 6.01 µM | [6] > 10 µM | [7] > 10 µM | [8] > 10 µM | [9] > 10 µM | [10] > 10 µM | [11] > 10 µM | [12] > 10 µM | [13] > 10 µM | [14] 1.38 µM | [15] > 10 µM

N#CCCN(CCCN(C(=O)Nc1ccccc1)c1ccccc1)C(=O)Nc1ccccc1
inactive: [1] 84.5 µM | [3] > 100 µM | [4] > 100 µM | [5] 78.9 µM | [6] > 100 µM | [7] > 100 µM | [16] > 100 µM | [8] > 100 µM | [9] 54.3 µM | [10] > 100 µM | [11] > 100 µM | [12] > 100 µM | [17] 58.3 µM | [18] 77.4 µM | [13] > 100 µM | [19] > 100 µM | [14] > 100 µM | [15] 87.9 µM

Nc1ccc2c(c1)S(=O)(=O)c1cc(O)ccc1O2
inactive: [1] > 100 µM | [2] > 100 µM | [3] > 100 µM | [4] > 100 µM | [5] > 100 µM | [6] > 100 µM | [7] > 100 µM | [16] > 100 µM | [9] > 100 µM | [10] > 100 µM | [11] > 100 µM | [12] > 100 µM | [17] 55.3 µM | [18] > 100 µM | [20] > 100 µM | [13] > 100 µM | [19] > 100 µM | [14] > 100 µM | [15] > 100 µM

COc1ccc(-c2cc(-c3cc(F)c(Cl)cc3Cl)on2)cc1OC
inactive: [2] 34 µM | [3] 15.6 µM | [4] 63.8 µM | [5] 30.8 µM | [6] 9.51 µM | [7] 28.3 µM | [16] 25.9 µM | [8] 45.3 µM | [9] 3.96 µM | [10] 7.93 µM | [11] 32.4 µM | [12] 72.3 µM | [17] 95.9 µM | [18] 26.2 µM | [20] 67.1 µM | [13] 68.1 µM | [19] 37.1 µM | [14] 75.5 µM | [15] 14.3 µM

CC(=O)OCC(C)(COC(C)=O)N1C(=O)C2C3c4ccccc4C(c4ccccc43)C2C1=O (stereo not given)
inactive: [1] > 100 µM | [2] > 100 µM | [3] > 100 µM | [4] > 100 µM | [5] > 100 µM | [6] > 100 µM | [16] > 100 µM | [9] > 100 µM | [10] > 100 µM | [12] > 100 µM | [17] > 100 µM | [18] > 100 µM | [20] > 100 µM | [13] > 100 µM | [19] > 100 µM | [14] > 100 µM | [15] > 100 µM

C(=C/c1ccc2nc(-c3ccc(/C=C/C=N/NC4=NCCCN4)cc3)cn2c1)/C=N/NC1=NCCCN1
inactive: [2] 12.2 µM | [3] 40.9 µM | [4] 42.9 µM | [5] 10.3 µM | [6] > 100 µM | [7] > 100 µM | [16] 16.1 µM | [9] 4.39 µM | [11] > 100 µM | [12] 17.6 µM | [17] > 100 µM | [18] 13.3 µM | [20] 15.8 µM | [13] 31.5 µM | [19] 17.5 µM | [14] 18.8 µM | [15] 6.31 µM

O=C1CSC2=NC3=C(COC/C3=C\c3ccc(F)cc3)C(c3ccc(F)cc3)N12 (stereo not given)
inactive: [1] 42 µM | [2] > 100 µM | [3] 58.5 µM | [4] 59.4 µM | [6] 71.4 µM | [16] 63.7 µM | [9] 34.4 µM | [10] 46 µM | [11] > 100 µM | [12] 55.7 µM | [17] 38.4 µM | [18] 38.1 µM | [20] > 100 µM | [13] 86.7 µM | [19] 35.2 µM | [14] 83.8 µM | [15] 75 µM

O=C(NI1OC(=O)c2ccccc21)c1ccc(Cl)cc1
inactive: [1] > 100 µM | [2] > 100 µM | [3] > 100 µM | [4] > 100 µM | [5] > 100 µM | [6] > 100 µM | [7] > 100 µM | [16] 45.7 µM | [9] 28.4 µM | [10] 34.4 µM | [11] > 100 µM | [12] > 100 µM | [17] 43.2 µM | [18] > 100 µM | [13] > 100 µM | [19] > 100 µM | [14] > 100 µM | [15] > 100 µM

O=c1[nH]n(Cc2ccccc2)c2ccc([N+](=O)[O-])cc12
inactive: [1] 28.2 µM | [2] > 100 µM | [4] 82.4 µM | [5] 61 µM | [6] 46.9 µM | [7] 57.9 µM | [16] 49.8 µM | [8] 44.5 µM | [9] 28.8 µM | [10] 48.9 µM | [11] 49.5 µM | [12] > 100 µM | [17] 45.5 µM | [18] 40.6 µM | [20] 35.2 µM | [13] 84.3 µM | [19] > 100 µM | [14] > 100 µM | [15] 64.4 µM

CC[C@@H](/C=C\CCC1(C[C@H](O)CCC=C(C)C)OCCO1)O[Si](C(C)C)(C(C)C)C(C)C
inactive: [1] 17.3 µM | [2] 21.6 µM | [3] 19.1 µM | [4] 17.5 µM | [5] 33.2 µM | [6] 17.8 µM | [7] 26.7 µM | [16] 17.3 µM | [9] 20 µM | [10] 26.4 µM | [11] 18 µM | [12] 19.9 µM | [17] 19.2 µM | [18] 21.9 µM | [20] 37.3 µM | [13] 20.9 µM | [19] 30 µM | [14] 28.8 µM | [15] 37.1 µM

N#Cc1nc(C(CO)N(Cc2ccccc2)C(=O)O)oc1N (stereo not given)
inactive: [1] > 100 µM | [2] > 100 µM | [3] > 100 µM | [4] > 100 µM | [5] > 100 µM | [6] > 100 µM | [7] > 100 µM | [16] > 100 µM | [9] > 100 µM | [11] > 100 µM | [12] > 100 µM | [17] > 100 µM | [18] > 100 µM | [13] > 100 µM | [19] > 100 µM | [14] > 100 µM | [15] > 100 µM
